Reference: patent US20260347372A1, “SMALL MOLECULE INHIBITORS OF KRAS G12D MUTANT” (MERCK SHARP & DOHME LLC, priority 2023, published 2026)

What was measured:
[1] = molecular target: KRAS G12D (Homo sapiens, UniProt P01116, G12D); experiment: SOS-catalyzed nucleotide exchange assay, KRAS G12D (Procedure A); format: biochemical; details: guanine nucleotide exchange (GNE)
How it was run: (§1)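 Preformed TR-FRET complex of biotinylated KRAS (G12C carries C51S/C80L/C118S; others native sequence), Bodipy-GDP and Tb-streptavidin preincubated with compound 60 min at room temperature. Exchange started with human SOS plus 3 mM GTP for 60 min (G13D 30 min). Final RAS/SOS: G12C 3/40 nM; WT, G12D 1/40 nM; G13D 1.25/0 nM. 520/495 nm ratio normalised, fitted to four-parameter logistic.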

[2] = molecular target: KRAS WT (Homo sapiens, UniProt P01116); experiment: SOS-catalyzed nucleotide exchange assay, KRAS WT (Procedure A); format: biochemical; details: GNE
Chain of KRAS WT (P01116 with tags, fused parts or gaps isoform P01116-2): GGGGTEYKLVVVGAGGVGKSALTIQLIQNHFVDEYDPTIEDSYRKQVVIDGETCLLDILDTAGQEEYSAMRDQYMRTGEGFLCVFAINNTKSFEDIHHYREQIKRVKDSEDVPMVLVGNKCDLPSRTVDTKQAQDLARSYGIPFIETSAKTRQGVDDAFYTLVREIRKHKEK
How it was run: as §1

[3] = molecular target: KRAS G12V (Homo sapiens, UniProt P01116, G12V); experiment: SOS-catalyzed nucleotide exchange assay, KRAS G12V (Procedure A); format: biochemical; details: GNE
Chain of KRAS G12V (P01116 with tags, fused parts or gaps isoform P01116-2 G12V): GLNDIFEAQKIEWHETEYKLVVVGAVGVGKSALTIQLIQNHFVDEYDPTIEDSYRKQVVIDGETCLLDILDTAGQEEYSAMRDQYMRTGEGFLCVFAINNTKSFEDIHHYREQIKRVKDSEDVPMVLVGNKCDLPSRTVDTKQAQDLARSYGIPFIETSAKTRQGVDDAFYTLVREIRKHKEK
How it was run: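 Biotinylated KRAS G12V was loaded with Bodipy-GDP alongside Terbium-streptavidin to form a TR-FRET complex, which was preincubated with compounds for 60 minutes in 384-well plates. Human SOS protein and unlabeled GTP were then added for 90 minutes, giving final concentrations of 1.25 nM KRAS-G12V, 160 nM SOS and 3 mM GTP. The 520/495 nm emission ratio was read on an Envision.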

[4] = molecular target: T1, AsPC-1 cells (Homo sapiens, UniProt P01116, G12D); experiment: Cellular phospho-ERK assay, AsPC-1 cells (KRAS G12D); format: cell-based; details: 2 hours, read-out: AsPC1 pERK IC50
T1 construct: p-ERK/total ERK AlphaSureFire read-out
T1 sequence (P01116 1-188 isoform P01116-2 G12D): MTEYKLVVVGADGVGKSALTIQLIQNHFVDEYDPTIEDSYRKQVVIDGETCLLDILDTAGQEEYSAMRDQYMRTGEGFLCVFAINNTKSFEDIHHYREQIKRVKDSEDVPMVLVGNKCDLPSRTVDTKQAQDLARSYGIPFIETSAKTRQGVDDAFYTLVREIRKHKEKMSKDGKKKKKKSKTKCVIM
How it was run: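 PANC08.13 or AsPC-1 cells (homozygous KRAS G12D) were seeded overnight, then treated for 2 h at 37 °C with a 10-point 1:3 titration from 30 μM. Lysates were assayed by AlphaLISA SureFire for p-ERK and total ERK. IC50 came from a 4-parameter fit of the p-ERK/total ERK ratio.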

Chain of KRAS G12D (P01116 with tags, fused parts or gaps isoform P01116-2 G12D): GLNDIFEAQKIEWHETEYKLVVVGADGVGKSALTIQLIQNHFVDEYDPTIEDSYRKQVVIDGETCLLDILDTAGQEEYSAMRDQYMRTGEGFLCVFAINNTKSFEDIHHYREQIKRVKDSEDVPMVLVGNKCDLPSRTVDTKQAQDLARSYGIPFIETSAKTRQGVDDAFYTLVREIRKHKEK

| SMILES | IC50 [1] [nM] | IC50 [2] [nM] | IC50 [3] [nM] | IC50 [4] [nM] |
| --- | --- | --- | --- | --- |
| C#Cc1c(F)ccc2cc3[nH]ncc3c(-c3nccc4c3sc3nc(OC[C@]5(CN6CCC7(CCC7)CC6)CC5(F)F)nc(N5C[C@H]6CC[C@@H](C5)N6)c34)c12 [Ex-98, 2-(((R)-1-((7-azaspiro[3.5]nonan-7-yl)methyl)-2,2-difluorocyclopropyl)meth-oxy)-4-((1R,5S)-3,8-diazabicyclo[3.2.1]octan-3-yl)-8-(5-ethynyl-6-fluoro-1H-benzo[f]indazol-4-yl)pyrido[4′,3′:4,5]thie-no[2,3-d]pyrimidine] | 6.92 | 6360 | > 11100 | 362 |
| CCc1c(F)ccc2cc3[nH]ncc3c(-c3nccc4c3sc3nc(OC[C@@]56CCCN5C[C@H](F)C6)nc(N5C[C@H]6CC[C@@H](C5)N6)c34)c12 [Ex-87, 4-((1R,5S)-3,8-diazabicyclo[3.2.1]octan-3-yl)-8-(5-ethyl-6-fluoro-1H-benzo[f]indazol-4-yl)-2-(((2R,7aS)-2-fluorotetrahydro-1H-pyrrolizin-7a(5H)-yl)methoxy)pyrido[4′,3′:4,5]thieno[2,3-d]pyrimidine] | 3.58 | 467 | 412 | 86.3 |
| C#Cc1c(F)ccc2cc3[nH]ncc3c(-c3nccc4c3sc3nc(OC[C@]5(CN6CCN(C(C)=O)CC6)CC5(F)F)nc(N5C[C@H]6CC[C@@H](C5)N6)c34)c12 [Ex-102, 1-(4-(((1R)-1-(((4-((1R,5S)-3,8-diazabicyclo[3.2.1]octan-3-yl)-8-(5-ethynyl-6-fluoro-1H-benzo[f]indazol-4-yl)pyrido [4′,3′:4,5]thie-no[2,3-d]pyrimidin-2-yl)oxy)methyl)-2,2-difluorocyclopropyl)meth-yl)piperazin-1-yl)ethan-1-one] | 12.3 | > 11100 | > 11100 | 2770 |
| C#Cc1c(F)ccc2cc3[nH]ncc3c(-c3nccc4c3sc3nc(OC[C@@]56CCCN5C[C@H](F)C6)nc(N5C[C@H]6CC[C@@H](C5)N6)c34)c12 [Ex-56] | 4.45 | 225 | 283 | 31.8 |
| C#Cc1c(F)ccc2cc3[nH]ncc3c(-c3nccc4c3sc3nc(OC[C@@]56CCCN5C/C(=C\F)C6)nc(N5C[C@@H]6C[C@H](O)[C@H](C5)N6)c34)c12 [Ex-114, (1S,5S,6S)-3-(8-(5-ethynyl-6-fluoro-1H-benzo[f]indazol-4-yl)-2-(((S,Z)-2-(fluoromethylene)tetrahydro-1H-pyrrolizin-7a(5H)-yl)methoxy)pyrido[4′,3′:4,5]thieno[2,3-d]pyrimidin-4-yl)-3,8-diazabicyclo[3.2.1]octan-6-ol] | 1.81 | 36.2 | 37.7 | 97 |
| C#Cc1c(F)ccc2cc3[nH]ncc3c(-c3nccc4c3sc3nc(OC[C@]5(CN6CCC(CCc7cn(C)nn7)CC6)CC5(F)F)nc(N5C[C@H]6CC[C@@H](C5)N6)c34)c12 [Ex-105, 4-((1R,5S)-3,8-diazabicyclo[3.2.1]octan-3-yl)-2-(((R)-2,2-difluoro-1-((4-(2-(1-methyl-1H-1,2,3-triazol-4-yl)ethyl)piperidin-1-yl)methyl)cyclopropyl)methoxy)-8-(5-ethynyl-6-fluoro-1H-benzo[f]indazol-4-yl)pyrido[4′,3′:4,5]thie-no[2,3-d]pyrimidine] | 1.6 | 279 | 475 | 67 |
| C#Cc1c(F)ccc2cc3[nH]ncc3c(-c3nccc4c3sc3nc(OC[C@]5(CN6CCC(COC)CC6)CC5(F)F)nc(N5C[C@H]6CC[C@@H](C5)N6)c34)c12 [Ex-111, 4-((1R,5S)-3,8-diazabicyclo[3.2.1]octan-3-yl)-2-(((R)-2,2-difluoro-1-((4-(methoxymethyl)piperidin-1-yl)methyl)cyclopropyl)methoxy)-8-(5-ethynyl-6-fluoro-1H-benzo[f]indazol-4-yl)pyrido[4′,3′:4,5]thieno[2,3-d]pyrimidine] | 5.43 | 1720 | 4400 | 172 |
| F[C@H]1CN2CCC[C@@]2(COc2nc(N3C[C@H]4CC[C@@H](C3)N4)c3c(n2)sc2c(-c4c(C5CC5)c(C(F)(F)F)cc5[nH]ncc45)nccc23)C1 [Ex-80, 4-((1R,5S)-3,8-diazabicyclo [3.2.1]octan-3-yl)-8-(5-cyclopropyl-6-(trifluoromethyl)-1H-indazol-4-yl)-2-(((2R,7aS)-2-fluorotetrahydro-1H-pyrrolizin-7a(5H)-yl)methoxy)pyrido [4′,3′:4,5]thieno [2,3-d]pyrimi-dine] | 3.57 | 706 | 734 | 411 |
| Cc1cc2[nH]ncc2c(-c2nccc3c2sc2nc(OCC4CS(=O)(=O)C4)nc(N4C[C@H]5CC[C@@H](C4)N5)c23)c1C(F)(F)F [Ex-27, 3-(((4-((1R,5S)-3,8-diazabicyclo[3.2.1]octan-3-yl)-8-(6-methy1-5-(trifluoromethyl)-1H-indazol-4-yl)pyrido[4′,3′:4,5]thieno[2,3-d]pyrimidin-2-yl)oxy)methyl)thietane 1,1-dioxide] | 3590 | > 11100 | > 11100 | 5730 |
| Cc1cc2[nH]ncc2c(-c2nccc3c2sc2nc(OC[C@@]45CCCN4C[C@H](F)C5)nc(N4C[C@@H]5CC[C@H]4CN5)c23)c1C(F)(F)F [Ex-75, 4-((1S,4S)-2,5-diazabicyclo[2.2.2]octan-2-yl)-2-(((2R,7aS)-2-fluorotetrahydro-1H-pyrrolizin-7a(5H)-yl)methoxy)-8-(6-methyl-5-(trifluoromethyl)-1H-indazol-4-yl)pyrido[4′,3′:4,5]thieno[2,3-d]pyrimidine] | 38.1 | 3680 | > 11100 | 629 |
| C#Cc1c(F)ccc2cc3[nH]ncc3c(-c3nccc4c3sc3nc(OC[C@]5(CO)CC5(F)F)nc(N5C[C@H]6CC[C@@H](C5)N6)c34)c12 [Ex-109, ((1R)-1-(((4-((1R,5S)-3,8-diazabicyclo[3.2.1]octan-3-yl)-8-(5-ethynyl-6-fluoro-1H-benzo[f]indazol-4-yl)pyrido[4′,3′:4,5]thieno[2,3-d]pyrimidin-2-yl)oxy)methyl)-2,2-difluorocyclopropyl)methanol] | 25.9 | > 11100 | > 11100 | 1010 |
| Cc1cc2[nH]ncc2c(-c2nccc3c2sc2nc(OC[C@@]45CCCN4C[C@H](F)C5)nc(N4[C@@H]5CC[C@H]4CN(CC(C)O)C5)c23)c1C(F)(F)F (stereo partly shown) [Ex-112] | 6770 | > 11100 | > 11100 | 14700 |
| C#Cc1c(F)ccc2cc3[nH]ncc3c(-c3nccc4c3sc3nc(OCC5(C(F)(F)F)CCOCC5)nc(N5C[C@H]6CC[C@@H](C5)N6)c34)c12 [Ex-110, 4-((1R,5S)-3,8-diazabicyclo[3.2.1]octan-3-yl)-8-(5-ethynyl-6-fluoro-1H-benzo[f]indazol-4-yl)-2-((4-(trifluoromethyl)tetrahydro-2H-pyran-4-yl)methoxy)pyrido[4′,3′:4,5]thieno[2,3-d]pyrimidine] | 2050 | > 11100 | > 11100 | 8280 |
| Cc1cc2[nH]ncc2c(-c2nccc3c2sc2nc(OCCN4CCOC4=O)nc(N4C[C@H]5CC[C@@H](C4)N5)c23)c1C(F)(F)F [Ex-40, 3-(2-((4-((1R,5S)-3,8-diazabicyclo[3.2.1]octan-3-yl)-8-(6-methyl-5-(trifluoromethyl)-1H-indazol-4-yl)pyrido[4′,3′:4,5]thieno[2,3-d]pyrimidin-2-yl)oxy)ethyl)oxazolidin-2-one] | 5880 | > 11100 | > 11100 | > 30000 |
| F[C@H]1CN2CCC[C@@]2(COc2nc(N3C[C@H]4CC[C@@H](C3)N4)c3c(n2)sc2c(-c4c(C5(F)CC5)c(C(F)(F)F)cc5[nH]ncc45)nccc23)C1 [Ex-79, 4-((1R,5S)-3,8-diazabicyclo[3.2.1]octan-3-yl)-8-(5-(1-fluorocyclopropyl)-6-(trifluoromethyl)-1H-indazol-4-yl)-2-(((2R,7aS)-2-fluorotetrahydro-1H-pyrrolizin-7a(5H)-yl)methoxy)pyrido[4′,3′:4,5]thieno[2,3-d]pyrimidine] | 12.3 | 4810 | 4490 | 612 |
| C#Cc1c(F)ccc2cc3[nH]ncc3c(-c3nccc4c3sc3nc(OC[C@]5(CN6CC7(CC(F)C7)C6)CC5(F)F)nc(N5C[C@H]6CC[C@@H](C5)N6)c34)c12 [Ex-99, 4-((1R,5S)-3,8-diazabicyclo[3.2.1]octan-3-yl)-2-(((R)-2,2-difluoro-1-((6-fluoro-2-azaspiro[3.3]heptan-2-yl)methyl)cyclopropyl)methoxy)-8-(5-ethynyl-6-fluoro-1H-benzo[f]indazol-4-yl)pyrido[4′,3′:4,5]thie-no[2,3-d]pyrimidine] | 1.53 | 1080 | 2740 | 59.9 |
